Reference: patent US20040048842A1, “Method of treating skin disorders” (priority 2002, published 2004)
“And” between values parts separate entries of the source, which are not always exact repeats. Equal values may be shown once.

experiment: Absorption peaks of photosensitizers; type: physicochemical; settings: relevant absorption peaks, Table 1
Excerpt: FIG. 1 is a graph showing the absorption bands of protoporphyrin IX, which is produced as a result of 5-aminolevulinic acid metabolism in a mammal. Protoporphyrin IX has an absorption band located in the blue spectral region (the 410 nanometer Soret band) and other weaker absorption bands in the 500 to 650 nanometer visible region, namely at about 506 nanometers, 546 nanometers, and 578 nanometers. […] Table 1 lists several photosensitizers useful in the practice of the invention, and identifies relevant absorption peaks for each of the listed photosensitizers. While the 460 nanometer to 620 nanometer wavelength range includes the relatively strong absorption peaks of oxyhemoglobin and deoxyhemoglobin, these blood components have other absorption peaks (although of lower relative maxima) at longer wavelengths. For example, deoxyhemoglobin has a weaker absorption peak at about 757 nanometers, and oxyhemoglobin has a weaker absorption peak at about 920 nanometers. Pulsed light sources in the red and near infrared (up to approximately 940 nanometers), for example, the flash lamp pumped alexandrite laser (755 nanometer), or semiconductor diode lasers, for example, gallium arsenide laser (810 nanometer) are capable of selective photothermolysis of blood vessels, including the microvessels in psoriatic lesions. Accordingly, under certain circumstances, it may be advantageous to use a source of pulsed or scanned irradiation having a wavelength in the range from about 640 nanometers to about 940 nanometers to perform combined selective photothermolysis of blood vessels and photodynamic therapy (using the appropriate photosensitizer) in the target region. Useful photosensitizers that absorb light in this spectral region include, for example, Pd(II)-octabutoxyphthalocyanine (732 nm, 838 nm), Si(IV)-napthalocyanine (773 nm)(Jori (1996) J. PHOTOCHEM. PHOTOBIOL. B 87-93), and 5,15-etiobacteriopurpurin (768 nm, 843 nm) (U.S. Pat. No. 6,376,483 B1).

Row | Compound | Wavelength of absorption peaks
1 | benzoporphyrin derivative mono-acid | ˜585 nm
2 | O=C([O-])c1c(Cl)c(Cl)c(Cl)c(Cl)c1-c1c2cc(I)c(=O)c(I)c-2oc2c(I)c([O-])c(I)cc12.[Na+].[Na+] [rose bengal] | 548 nm
3 | nickel 5,10-bis-acrylate etioporphyrin I | 580 nm

experiment: not given; settings: spectral region about 640 to about 940 nanometers; cited from earlier work

Row | Compound | wavelength of light absorbed
4 | 5,15-etiobacteriopurpurin | 768 nm and 843 nm
5 | Pd(II)-octabutoxyphthalocyanine | 732 nm and 838 nm
6 | Si(IV)-napthalocyanine | 773 nm
